From patent US9084424B2, “N-benzyl heterocyclic carboxamides” (BAYER INTELLECTUAL PROPERTY GMBH, priority 2010, dated 2015)

How the values were obtained:
[1] = log P by HPLC on reversed-phase column (EEC Directive 79/831 Annex V.A8); type: physicochemical; conditions: 0.1% aqueous formic acid and acetonitrile, linear gradient 10% to 90% acetonitrile
Experimental: In table 1, the log P values were determined in accordance with EEC Directive 79/831 Annex V.A8 by HPLC (High Performance Liquid Chromatography) on a reversed-phase column (C 18), using the method described below: Temperature: 40° C.; Mobile phases: 0.1% aqueous formic acid and acetonitrile; linear gradient from 10% acetonitrile to 90% acetonitrile. Calibration was carried out using unbranched alkan-2-ones (comprising 3 to 16 carbon atoms) with known log P values (determination of the log P values by the retention times using linear interpolation between two successive alkanones). lambda-max-values were determined using UV-spectra from 200 nm to 400 nm and the peak values of the chromatographic signals.

Pyrenophora teres = assay: In vivo preventive test on Pyrenophora teres (barley); conditions: preventive spray, 500 ppm of active ingredient, evaluated 7-9 days after inoculation
Experimental: In Vivo Preventive Test on Pyrenophora teres (Barley)
Solvent: 49 parts by weight of N,N-dimethylacetamid
Emulsifier: 1 part by weight of alkylaryl polyglycol ether
To produce a suitable preparation of active compound, 1 part by weight of active compound is mixed with the stated amounts of solvent and emulsifier, and the concentrate is diluted with water to the desired concentration.
To test for preventive activity, young plants are sprayed with the preparation of active compound at the stated rate of application. One day after this treatment, the plants are inoculated with an aqueous spore suspension of Pyrenophora teres. The plants remain for 48 hours in an incubation cabinet at 22° C. and a relative atmospheric humidity of 100%. Then the plants are placed in a greenhouse at a temperature of approximately 20° C. and a relative atmospheric humidity of approximately 80%.
The test is evaluated 7-9 days after the inoculation. 0% means an efficacy which corresponds to that of the untreated control while an efficacy of 100% means that no disease is observed.

[2] = HPLC, reversed-phase C 18, 40° C.
[3] = HPLC on reversed-phase column (C 18), 40° C.

Row | Compound | logP [1, 2] | Efficacy (Pyrenophora teres) [%] | logP [1, 3]
1 | Cn1nc(C(F)F)c(C(=O)NC(C#N)c2ccccc2)c1F (racemic) [Example 3] | 2.07 |  | 
2 | Cn1nc(C(F)F)c(C(=O)NC(C#N)c2ccccc2)c1Cl (racemic) [Example 4] | 2.20 |  | 
3 | Cn1nc(C(F)F)c(C(=O)NC(C#N)c2cc(F)ccc2F)c1Cl (racemic) [Example 7] | 2.31 |  | 
4 | Cn1nc(C(F)F)c(C(=O)NC(C#N)c2cc(F)ccc2F)c1F (racemic) [Example 8] | 2.01 |  | 
5 | CC(NC(=O)c1c(C(F)F)nn(C)c1Cl)c1ccc(OCc2ccccc2)cc1 (racemic) [Example 159] |  | 95 | 3.58
6 | Cc1cccc(C)c1CN(C)C(=O)c1c(C(F)F)nn(C)c1Cl [Example 5] | 3.02 | 89 | 
7 | Cc1cccc(C)c1CN(C)C(=O)c1c(C(F)F)nn(C)c1F [Example 6] | 2.84 | 78 | 
8 | Cn1nc(C(F)F)c(C(=O)NC(C)(C)c2c(F)cccc2F)c1F [Example 9] | 4.19 |  | 
9 | Cn1nc(C(F)F)c(C(=O)NC(C)(C)c2c(F)cccc2F)c1Cl [Example 10] | 3.89 |  | 
10 | CCc1ccccc1CN(CC#N)C(=O)c1c(C(F)F)nn(C)c1F [Example 11] | 2.68 |  | 
11 | CCc1ccccc1CN(C(=O)c1c(C(F)F)nn(C)c1F)C(C)C [Example 14] | 3.39 |  | 
12 | Cn1nc(C(F)F)c(C(=O)NCc2ccccc2Cl)c1Cl [Example 21] | 2.69 |  | 
13 | Cn1nc(C(F)F)c(C(=O)NCc2ccccc2Cl)c1F [Example 25] | 2.50 |  | 
14 | Cn1nc(C(F)F)c(C(=O)NCc2ccc(Cl)cc2Cl)c1Cl [Example 34] | 4.19 |  | 
15 | CN(Cc1ccc(Cl)cc1Cl)C(=O)c1c(C(F)F)nn(C)c1Cl [Example 42] | 3.37 |  | 
16 | CN(Cc1ccc(Cl)cc1Cl)C(=O)c1c(C(F)F)nn(C)c1F [Example 43] | 3.19 | 100 | 
17 | Cn1nc(C(F)F)c(C(=O)NCc2cc(Cl)ccc2Cl)c1Cl [Example 47] | 4.39 |  | 
18 | Cn1nc(C(F)F)c(C(=O)NC2(c3cc(Cl)ccc3Cl)CC2)c1Cl [Example 48] | 4.19 |  | 
19 | CN(Cc1cc(Cl)ccc1Cl)C(=O)c1c(C(F)F)nn(C)c1Cl [Example 57] | 3.23 |  | 
20 | CN(Cc1cc(Cl)ccc1Cl)C(=O)c1c(C(F)F)nn(C)c1F [Example 58] | 3.02 |  | 
21 | Cn1nc(C(F)F)c(C(=O)NCc2c(Cl)cccc2Cl)c1Cl [Example 59] | 3.89 |  | 
22 | Cn1nc(C(F)F)c(C(=O)NCc2c(Cl)cccc2Cl)c1F [Example 60] | 4.39 |  | 
23 | CN(Cc1c(Cl)cccc1Cl)C(=O)c1c(C(F)F)nn(C)c1Cl [Example 61] | 3.02 | 100 | 
24 | CN(Cc1c(Cl)cccc1Cl)C(=O)c1c(C(F)F)nn(C)c1F [Example 62] | 2.82 | 100 | 
25 | CC(c1c(Cl)cccc1Cl)N(C)C(=O)c1c(C(F)F)nn(C)c1Cl (stereo not drawn) [Example 63] | 3.25 |  | 

Row | Compound | logP [1, 2] | Efficacy (Pyrenophora teres) [%] | logP [1, 3]
26 | CC(c1c(Cl)cccc1Cl)N(C)C(=O)c1c(C(F)F)nn(C)c1F (stereo not drawn) [Example 64] | 3.13 | 95 | 
27 | Cn1nc(C(F)F)c(C(=O)NCc2ccccc2C2CC2)c1Cl [Example 66] | 2.98 |  | 
28 | CC(C)c1ccccc1CN(CC#N)C(=O)c1c(C(F)F)nn(C)c1F [Example 67] | 2.94 | 90 | 
29 | CC(C)c1ccccc1CN(C(=O)c1c(C(F)F)nn(C)c1F)C(C)C [Example 69] | 3.70 |  | 
30 | CON(Cc1ccccc1C(C)C)C(=O)c1c(C(F)F)nn(C)c1Cl [Example 77] | 3.51 |  | 
31 | CC(C)c1ccc(Cl)cc1CN(CC(F)F)C(=O)c1c(C(F)F)nn(C)c1F [Example 80] | 3.81 | 100 | 
32 | Cn1nc(C(F)F)c(C(=O)N(Cc2cc(Cl)ccc2C(F)(F)F)C2CSC2)c1Cl [Example 86] | 4.08 |  | 
33 | Cn1nc(C(F)F)c(C(=O)N(Cc2cc(Cl)ccc2C(F)(F)F)C2CSC2)c1F [Example 87] | 3.92 | 95 | 
34 | CC(C)N(Cc1c(Cl)cccc1C(F)(F)F)C(=O)c1c(C(F)F)nn(C)c1F [Example 92] | 3.61 | 70 | 
35 | C#CCN(Cc1c(Cl)cccc1C(F)(F)F)C(=O)c1c(C(F)F)nn(C)c1F [Example 93] | 3.05 | 95 | 
36 | C=CCN(Cc1c(Cl)cccc1C(F)(F)F)C(=O)c1c(C(F)F)nn(C)c1F [Example 94] | 3.37 | 80 | 
37 | Cn1nc(C(F)F)c(C(=O)NCc2c(F)cccc2C(F)(F)F)c1F [Example 95] | 2.69 |  | 
38 | Cn1nc(C(F)F)c(C(=O)NCc2c(F)cccc2C(F)(F)F)c1Cl [Example 96] | 2.86 |  | 
39 | Cn1nc(C(F)F)c(C(=O)N(CC#N)Cc2ccccc2[Si](C)(C)C)c1F [Example 97] | 3.52 |  | 
40 | CC(C)N(Cc1ccccc1[Si](C)(C)C)C(=O)c1c(C(F)F)nn(C)c1F [Example 102] | 4.37 |  | 
41 | CN(Cc1ccccc1Br)C(=O)c1c(C(F)F)nn(C)c1Cl [Example 104] | 2.90 | 78 | 
42 | Cn1nc(C(F)F)c(C(=O)NC2(c3cccc(C(F)(F)F)c3)CCCC2)c1Cl [Example 109] |  |  | 3.80
43 | Cn1nc(C(F)F)c(C(=O)NCc2ccc3c(c2)CCCC3)c1Cl [Example 111] |  |  | 3.44
44 | Cn1nc(C(F)F)c(C(=O)NC(C)(C)c2cc(Cl)cc(Cl)c2)c1F [Example 114] |  |  | 3.59
45 | COc1ccc(CNC(=O)c2c(C(F)F)nn(C)c2F)cc1OC [Example 119] |  |  | 1.79
46 | COc1ccc(CNC(=O)c2c(C(F)F)nn(C)c2Cl)cc1OC [Example 120] |  |  | 1.36
47 | Cn1nc(C(F)F)c(C(=O)NC2(c3ccc(C(F)(F)F)cc3)CCCC2)c1Cl [Example 122] |  |  | 3.87
48 | Cn1nc(C(F)F)c(C(=O)NCc2ccc(C(F)(F)F)cc2)c1F [Example 123] |  |  | 2.75
49 | Cn1nc(C(F)F)c(C(=O)NCc2ccc(C(F)(F)F)cc2)c1Cl [Example 124] |  |  | 2.90
50 | Cn1nc(C(F)F)c(C(=O)NCc2ccc(Cl)cc2)c1Cl [Example 128] |  |  | 2.70

Row | Compound | logP [1, 2] | Efficacy (Pyrenophora teres) [%] | logP [1, 3]
51 | CC(NC(=O)c1c(C(F)F)nn(C)c1F)c1ccc(C2CCCCC2)cc1 (stereo not drawn) [Example 129] |  | 100 | 4.34
52 | CCOc1ccc(C2(NC(=O)c3c(C(F)F)nn(C)c3Cl)CCCC2)cc1 [Example 130] |  |  | 3.59
53 | CCOc1ccc(C2(NC(=O)c3c(C(F)F)nn(C)c3F)CCCC2)cc1 [Example 131] |  | 94 | 3.44
54 | COc1ccc(C2(NC(=O)c3c(C(F)F)nn(C)c3Cl)CCCC2)cc1 [Example 132] |  |  | 3.19
55 | COc1ccc(C2(NC(=O)c3c(C(F)F)nn(C)c3F)CCCC2)cc1 [Example 133] |  | 95 | 3.06
56 | COc1ccc(CNC(=O)c2c(C(F)F)nn(C)c2F)cc1 [Example 134] |  |  | 2.08
57 | Cn1nc(C(F)F)c(C(=O)NCc2ccccc2Oc2ccccc2)c1Cl [Example 143] |  |  | 3.46
58 | Cn1nc(C(F)F)c(C(=O)NCc2cccc(Oc3ccccc3)c2)c1Cl [Example 146] |  |  | 3.46
59 | Cn1nc(C(F)F)c(C(=O)NCc2ccc(Oc3ccccc3)cc2)c1Cl [Example 151] |  |  | 3.37
60 | CN(Cc1ccc(Oc2ccccc2)cc1)C(=O)c1c(C(F)F)nn(C)c1Cl [Example 155] |  |  | 3.48
61 | Cn1nc(C(F)F)c(C(=O)NCc2ccc(OCc3ccccc3)cc2)c1Cl [Example 160] |  |  | 3.37
62 | Cn1nc(C(F)F)c(C(=O)NCc2ccccc2-c2ccccc2)c1F [Example 163] |  |  | 3.21
63 | Cn1nc(C(F)F)c(C(=O)NCc2ccccc2-c2ccccc2)c1Cl [Example 164] |  |  | 3.39
64 | Cn1nc(C(F)F)c(C(=O)NCc2cccc(-c3ccccc3)c2)c1Cl [Example 165] |  |  | 3.33
65 | Cn1nc(C(F)F)c(C(=O)NCc2ccc(-c3ccccc3)cc2)c1Cl [Example 168] |  |  | 3.35
66 | Cn1nc(C(F)F)c(C(=O)NC2(c3ccccn3)CCCC2)c1Cl [Example 171] |  |  | 1.30
67 | Cn1nc(C(F)F)c(C(=O)NC2(c3ccccn3)CCCC2)c1F [Example 172] |  |  | 1.13
68 | CN(Cc1cc(Cl)ccn1)C(=O)c1c(C(F)F)nn(C)c1Cl [Example 173] |  |  | 2.01
69 | Cn1nc(C(F)F)c(C(=O)NCc2ncc(C(F)(F)F)cc2Cl)c1Cl [Example 178] |  |  | 3.08
70 | Cn1nc(C(F)F)c(C(=O)N(Cc2ncc(Cl)cc2Cl)C2CCCC2)c1F [Example 183] |  |  | 3.85
71 | CC(c1ncc(Cl)cc1Cl)N(C)C(=O)c1c(C(F)F)nn(C)c1Cl (stereo not drawn) [Example 186] |  |  | 3.11
72 | Cn1nc(C(F)F)c(C(=O)N(Cc2ncc(C(F)(F)F)cc2Cl)C2CCCC2)c1Cl [Example 189] |  |  | 4.21
73 | Cn1nc(C(F)F)c(C(=O)N(Cc2ncc(C(F)(F)F)cc2Cl)C2CCCC2)c1F [Example 190] |  |  | 3.96
